The text below walks through data of patent US20020028474A1, “Composition for immunohistochemical staining” (DAIICHI PURE CHEMICAL CO., LTD., priority 1996, published 2002).

Format in all cases: physicochemical
A short description of series [1]: Fluorescence observed by infrared ray microscope on cotton gauze thread, with or without sodium distearoylphosphatidate/octyl glucoside solution (Example 1). The arrangement: key: +++: Definitely bright; ++: Bright.; +: Observable; ±: Slightly observable. Particulars: for Fluorescence intensity, No addition group: no DSPA/OG solution; for Fluorescence intensity, Addition group: sodium distearoylphosphatidate + octyl glucoside solution added. As to the method: Octyl glucoside (Dojindo Laboratories, 880 mg) was carefully added to phosphate buffered saline (10 ml, pH 7.4) and dissolved with stirring on a water bath at 40° C. Sodium distearoylphosphatidate (148.8 mg) was added to the resulting solution and dissolved with stirring over a water bath at 60° C., and then the solution was added with phosphate buffered saline up to a final volume of 20 ml. The solution was returned to room temperature and stored as frozen aliquots of 1 ml volume before use. The final concentrations of sodium distearoylphosphatidate and octyl glucoside in the solution were 10 mM and 150 mM, respectively.
The above diagnosis marker (54 μg) in the lyophilized state was added with 10% (v/v) dimethyl sulfoxide (DMSO)/phosphate buffered saline (20 μl, pH 7.4) and dissolved. The above solution of sodium distearoylphosphatidate and octyl glucoside (5 μl) was added to 5 μl of the resulting solution, which was warmed beforehand, and mixed by repeating careful suction and ejection using a micropipette to obtain a composition of the present invention in the form of an aqueous solution. By using an indocyanine green (ICG) solution, ICC-sulfo-OSu solution, and water (control) instead of the solution of the diagnosis marker, aqueous compositions were prepared in the same manner as described above.
BHSM-IR (Olympus Optical) was used as an infrared ray microscope that allows observation in visible light to near infrared light region. The microscope was equipped with an excitation light transmitting filter that transmits lights of 710-790 nm (Asahi Bunko) under the sample, and with an excitation light cutting filter that transmits lights of 810-920 nm (Asahi Bunko) over the sample. KP-MI from Hitachi Electronic Engineering was used as a CCD, and fluorescence caught by the CCD was taken into an image collecting apparatus (EVIP-230, Olympus Optical), and recorded in an image recording apparatus (S321S, Olympus Optical) via an amplification system (Olympus Optical).
5 μl of each of the samples was dropped onto a cotton gauze thread (1 cm) placed on an object glass, and images were observed under irradiation by ordinary light and infrared light using the above optical system. […] The recorded images were converted into final images through an image processing comprising the steps of integration of an original image, integration of a background image, formation of a subtraction image, formation of a filtering image, and contrast enhancement by using the above-mentioned apparatus. […] In the table, all of the concentrations indicate those calculated based on ICG concentration. […] In the figure, (a) represents the result obtained under irradiation of ordinary light, and (b) represents the result obtained under irradiation of infrared ray.

Series [2] can be described thus: Fluorescence intensity enhancing effect versus octyl glucoside concentration (Example 3). Particulars: for Fluorescence wavelength / Fluorescence intensity: excitation 768 nm; for Fluorescence intensity: labeled anti-mucin antibody 83.3 nM, 50° C.; for Fluorescence intensity (standard): 1 ppm, λex=251 nm, λem=450 nm. As to the method: The final antibody concentration in the diagnostic markers was 83.3 nM, and the IOG-sulfo-OSu concentration was 1.33 μM. Fluorescence spectra of the samples were measured in the same manner as in Example 2. The slit width was 2 nm for each of excitation light and fluorescence.

Series [3] is described as follows: Fluorescence spectrum of compositions of ICG-sulfo-OSu-labeled mouse anti-mucin antibody with fluorescence intensity enhancing agents (Example 2). Particulars: 1 ppm, λex=255 nm, λem=451 nm. As to the method: The above diagnostic marker in the form of lyophilized product obtained from the mouse anti-mucin antibody (100 μg) was added with 4.0 ml of phosphate buffered saline and dissolved. 1.5 ml of the resulting solution was added with 1.5 ml of a solution of the fluorescence intensity enhancing agent of the present invention, and then the mixture was warmed over a water bath at 50° C. to prepare a final sample. As a control, a solution was prepared in the same manner by adding 1.5 ml of phosphate buffered saline. The final antibody concentration in the diagnostic marker was 83.3 nM, and the ICG-sulfo-OSu concentration was 1.33 μM. Fluorescence spectrum of each sample was measured by using a Hitachi spectrophotometer 650-40. The slit width was 5 nm for each of excitation light and fluorescence.

Where [4] appears, read: before the spectrum measurement.

Molecules are shown by their SMILES. Counter-ions that a name gives are not always drawn.

In the case of `CC1(C)C(/C=C/C=C/C=C/C=C2\N(CCCCS(=O)(=O)O)c3ccc4ccccc4c3C2(C)C)=[N+](CCCCS(=O)(=O)[O-])c2ccc3ccccc3c21` [ICC, indocyanine green], the “Fluorescence intensity, No addition group” value in series [1] (1 mg/ml in terms of ICG, fluorescence at 800 nm or more) is reported as “++”. The “Fluorescence intensity, Addition group” value in series [1] (1 mg/ml in terms of ICG) was “++”.
As to `CC1(C)C(/C=C/C=C/C=C/C=C2\N(CCCCS(=O)(=O)[O-])c3ccc4ccccc4c3C2(C)C)=[N+](CCCCCC(=O)ON2C(=O)CC(S(=O)(=O)[O-])C2=O)c2ccc3ccccc3c21.[Na+]` (stereo not drawn) [ICG-sulfo-OSu, indocyanine green-N-hydroxysulfosuccinimide ester], in series [1] (10 μg/ml in terms of ICG), the “Fluorescence intensity, No addition group” value was “+” and the “Fluorescence intensity, Addition group” value is given as “+”. Also, in series [1] (100 μg/ml in terms of ICG), the “Fluorescence intensity, No addition group” value is on record as “±” and the “Fluorescence intensity, Addition group” value is “++”.
In the case of `CCCCCCCCO[C@@H]1O[C@H](CO)[C@@H](O)[C@H](O)[C@H]1O` [OG, octyl glucoside], the “shift of fluorescence wavelength to a longer wavelength region versus octyl glucoside concentration” value in series [2] (ICG-sulfo-OSu labeled anti-mucin antibody) is listed as “sharp increases were observed at concentrations near the critical micelle concentration”. Further, the “dependence of fluorescence intensity on octyl glucoside concentration” value in series [2] (ICG-sulfo-OSu labeled anti-mucin antibody, critical micelle concentration 25 mM) is “Sharp increases of fluorescence intensity were observed at concentrations near the critical micelle concentration”. In addition, the Fluorescence wavelength in series [2] (OG 1.0 mM) worked out at 806 nm; in series [2] (OG 1.50 mM), 821 nm; in series [2] (OG 5.0 mM), 804 nm; in series [2] (OG 10.0 mM), 809 nm; in series [2] (OG 20.0 mM), 817 nm; in series [2] (OG 37.5 mM) it was 817 nm. The Fluorescence wavelength was 820 nm in series [2] (OG 50.0 mM), 816 nm in series [2] (OG 75.0 mM) and 816 nm in series [2] (OG 100 mM). The Fluorescence intensity amounted to 0.150 in series [2] (OG 1.0 mM); 0.588 in series [2] (OG 1.50 mM); 0.150 in series [2] (OG 5.0 mM); 0.189 in series [2] (OG 10.0 mM); 0.436 in series [2] (OG 20.0 mM); 0.520 in series [2] (OG 37.5 mM). The figures for the Fluorescence intensity in series [2] (OG 50.0 mM), in series [2] (OG 75.0 mM) and in series [2] (OG 100 mM) were 0.515, 0.525 and 0.600, respectively.
Take `C=C[C@H]1C[N@@]2CC[C@H]1C[C@H]2[C@H](O)c1ccnc2ccc(OC)cc12` [quinine sulfate, reference compound]: the “Fluorescence intensity (standard)” value in series [2] (after the spectrum measurement) came out at 96.0; in series [2] (setting [4]) it was 100.0; in series [3] (after the spectrum measurement), 69.5; in series [3] (setting [4]), 68.0.
